Among the data in US20230390260A1, “METHOD OF TREATMENT OF PAIN THROUGH BUCCAL ADMINISTRATION OF FLUNIXIN” (Intervet Inc., priority 2020, published 2023) are bioavailability values, retold here.

Like-named read-outs stand apart in the source and are kept apart here.

The bioavailability is dose-corrected exposure relative to a reference, in per cent.

The conditions of series [1]: bovine species, same (transdermal) formulation; cited from earlier work.
Series [2] is described as follows: Pharmacokinetic study of flunixin in young piglets, comparing administration routes (plasma LC-MS/MS). The format is in vivo, piglets (swine). Particulars: pig, read-out: % F (bioavailability). Here is the method:
A pharmacokinetic study was conducted to compare the bioavailability of flunixin when administered buccally, intramuscularly, IV, and the transdermal routes via the perineum, ear canal, rectum, and midline in young piglets.
Piglets were administered either Banamine® Transdermal (buccal, perineum, ear canal, rectum, and midline) or Banamine®-S Injectable Solution (intravenous and intramuscular) at 5 to 6 days of age. Blood samples were collected from the piglets at 5 min, 15 min, 1 h, 2 h, 4 h, 8 h, 12 h, 24 h, 36 h, and 48 h for those treated with Banamine® Transdermal, and at 1 h, 2 h, 4 h, 8 h, 12 h, 24 h, 36 h, 48 h, 60 h, and 72 h for those treated with Banamine®-S Injectable Solution. Plasma samples were analyzed for flunixin concentration using an GLP-validated LC/MS-MS method. Swine plasma (K2EDTA) is extracted by protein precipitation with an acetonitrile solution of the internal standard (Flunixin-d3). The samples are then centrifuged, and the resulting supernatants are analyzed by LC-MS/MS using selective reaction monitoring in negative electrospray ionization mode. The ionic transitions monitored are m/z 295 to m/z 251 for Flunixin and m/z 298 to m/z 254 for the internal standard.
The following key pharmacokinetic parameters were calculated for each group (mean±standard error): […]

As to `Cc1c(Nc2ncccc2C(=O)O)cccc1C(F)(F)F` [flunixin, Flunixin], the bioavailability is 44% in series [1]; 71% in series [2] (im, Intramuscular, Banamine-S Injectable Solution, piglets); 40% in series [2] (other: buccal, Buccal, Banamine Transdermal, piglets); 5% in series [2] (topical or ocular, Midline, Banamine Transdermal, piglets (swine)).
